This passage reports EC50 results from patent US9499550B2 (BRISTOL-MYERS SQUIBB COMPANY, priority 2012, dated 2016).

The test system of assay [1] is HCV genotype 1a (H77 strain) replicon in HUH-7 cells. The assay is described as follows: HCV replicon luciferase reporter assay, genotype 1a. It is filed as cell-based. The note with it: Hepatitis C virus, Huh-7, 72 h, HCV genotype 1a replicon luciferase, 3 days incubation, read-out: LE_1a (EC50, range). The method in brief: (§1)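 Replicon inhibition for both genotypes was measured as Renilla luciferase signal (EnduRen, 7.5 μM final, 2 h) after 3-day, 37° C exposure of replicon-bearing HUH-7 cells in 4% FCS DMEM, 0.5% DMSO. The 1b construct carries S1179I; the 1a H77 construct carries P1496L and S2204I. Twenty-point, 3-fold dilutions were fitted four-parametrically for EC50, and CC50 was taken from multiplexed Cell Titer-Blue.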
(In general: In antiviral work, replicon cells carry a viral genome segment that copies itself.)

Assay [2] deals with HCV genotype 1b (Con1) replicon in HUH-7 cells. The assay is described as follows: HCV replicon luciferase reporter assay, genotype 1b. It is filed as cell-based. The note with it: Hepatitis C virus, Huh-7, 72 h, HCV genotype 1b replicon luciferase, 3 days incubation, read-out: LE_1b (EC50, range). The method, boiled down:
as §1

Broadly, the EC50 is the concentration at which the effect is half-maximal.

`[2H]C([2H])([2H])Oc1cnc(O[C@@H]2C[C@H]3C(=O)N[C@]4(C(=O)NS(=O)(=O)C5(C)CC5)C[C@H]4/C=C\CC[C@H](C)C[C@@H](C)[C@H](NC(=O)OC(C)(C)C)C(=O)N3C2)c2ccccc12` [Compound 5100, tert-butyl ((2R,6S,7R,9S,13aS,14aR,16aS,Z)-7,9-dimethyl-14a-(((1-methylcyclopropyl)sulfonyl)carbamoyl)-5,16-dioxo-2-((4-(trideuteromethoxy)isoquinolin-1-yl)oxy)-1,2,3,5,6,7,8,9,10,11,13a,14,14a,15,16,16a-hexadecahydrocyclopropa[e]pyrrolo[1,2-a][1,4]diazacyclopentadecin-6-yl)carbamate]: the EC50 in assay [1] and in assay [2] was less than 5.46 nM each time.
As to `[2H]C([2H])([2H])Oc1cnc(O[C@@H]2C[C@H]3C(=O)N[C@]4(C(=O)NS(=O)(=O)C5(C)CC5)C[C@H]4/C=C\CC[C@H](C)C[C@@H](C)[C@H](NC(=O)OC(C)(C)C(F)(F)F)C(=O)N3C2)c2ccccc12` [Compound 5102, 1,1,1-trifluoro-2-methylpropan-2-yl((2R,6S,7R,9S,13aS,14aR,16aS,Z)-7,9-dimethyl-14a-(((1-methylcyclopropyl)sulfonyl)carbamoyl)-5,16-dioxo-2-((4-(trideuteromethoxy)isoquinolin-1-yl)oxy)-1,2,3,5,6,7,8,9,10,11,13a,14,14a,15,16,16a-hexadecahydrocyclopropa[e]pyrrolo[1,2-a][1,4]diazacyclopentadecin-6-yl)carbamate], the EC50 in assay [1] and in assay [2] was less than 5.46 nM throughout.
`[2H]C([2H])([2H])Oc1cnc(O[C@@H]2C[C@H]3C(=O)N[C@]4(C(=O)NS(=O)(=O)C5(C)CC5)C[C@H]4/C=C\CC[C@@H](C)C[C@@H](C)[C@H](NC(=O)OC(C)(C)C(F)(F)F)C(=O)N3C2)c2ccccc12` [Compound 5103, 1,1,1-trifluoro-2-methylpropan-2-yl((2R,6S,7R,9R,13aS,14aR,16aS,Z)-7,9-dimethyl-14a-(((1-methylcyclopropyl)sulfonyl)carbamoyl)-5,16-dioxo-2-((4-(trideuteromethoxy)isoquinolin-1-yl)oxy)-1,2,3,5,6,7,8,9,10,11,13a,14,14a,15,16,16a-hexadecahydrocyclopropa[e]pyrrolo[1,2-a][1,4]diazacyclopentadecin-6-yl)carbamate]: the EC50 in assay [1] and in assay [2] was less than 5.46 nM in each case.
As to `[2H]C([2H])([2H])Oc1cnc(O[C@@H]2C[C@H]3C(=O)N[C@]4(C(=O)NS(=O)(=O)C5(C)CC5)C[C@H]4/C=C\CC[C@H](C)C[C@@H](C)[C@H](NC(=O)OC(C([2H])([2H])[2H])(C([2H])([2H])[2H])C(F)(F)F)C(=O)N3C2)c2ccccc12` [Compound 5104, 1,1,1,3,3,3-hexadeutero-2-(trifluoromethyl)propan-2-yl((2R,6S,7R,9S,13aS,14aR,16aS,Z)-7,9-dimethyl-14a-(((1-methylcyclopropyl)sulfonyl)carbamoyl)-5,16-dioxo-2-((4-(trideuteromethoxy)isoquinolin-1-yl)oxy)-1,2,3,5,6,7,8,9,10,11,13a,14,14a,15,16,16a-hexadecahydrocyclopropa[e]pyrrolo[1,2-a][1,4]diazacyclopentadecin-6-yl)carbamate], the EC50 in assay [1] and in assay [2] was less than 5.46 nM throughout.
Take `[2H]C([2H])([2H])Oc1cnc(O[C@@H]2C[C@H]3C(=O)N[C@]4(C(=O)NS(=O)(=O)C5(C)CC5)C[C@H]4/C=C\CC[C@@H](C)C[C@@H](C)[C@H](NC(=O)OC(C([2H])([2H])[2H])(C([2H])([2H])[2H])C(F)(F)F)C(=O)N3C2)c2ccccc12` [Compound 5105, 1,1,1,3,3,3-hexadeutero-2-(trifluoromethyl)propan-2-yl((2R,6S,7R,9R,13aS,14aR,16aS,Z)-7,9-dimethyl-14a-(((1-methylcyclopropyl)sulfonyl)carbamoyl)-5,16-dioxo-2-((4-(trideuteromethoxy)isoquinolin-1-yl)oxy)-1,2,3,5,6,7,8,9,10,11,13a,14,14a,15,16,16a-hexadecahydrocyclopropa[e]pyrrolo[1,2-a][1,4]diazacyclopentadecin-6-yl)carbamate]: the EC50 in assay [1] and in assay [2] was less than 5.46 nM each time.
Take `[2H]C([2H])([2H])Oc1cnc(O[C@@H]2C[C@H]3C(=O)N[C@]4(C(=O)NS(=O)(=O)C5(C)CC5)C[C@H]4/C=C\CC[C@H](C)C[C@@H](C)[C@H](NC(=O)NC(C)(C)C)C(=O)N3C2)c2ccccc12` [Compound 5106, (2R,6S,7R,9S,13aS,14aR,16aS,Z)-6-(3-(tert-butyl)ureido)-7,9-dimethyl-N-((1-methylcyclopropyl)sulfonyl)-5,16-dioxo-2-((4-(trideuteromethoxy)isoquinolin-1-yl)oxy)-1,2,3,5,6,7,8,9,10,11,13a,14,14a,15,16,16a-hexadecahydrocyclopropa[e]pyrrolo[1,2-a][1,4]diazacyclopentadecine-14a-carboxamide]: the EC50 in assay [1] and in assay [2] was less than 5.46 nM each time.
For the compound `[2H]C([2H])([2H])Oc1cnc(O[C@@H]2C[C@H]3C(=O)N[C@]4(C(=O)NS(=O)(=O)C5(C)CC5)C[C@H]4/C=C\CC[C@@H](C)C[C@@H](C)[C@H](NC(=O)NC(C)(C)C)C(=O)N3C2)c2ccccc12` [Compound 5107, (2R,6S,7R,9R,13aS,14aR,16aS,Z)-6-(3-(tert-butyl)ureido)-7,9-dimethyl-N-((1-methylcyclopropyl)sulfonyl)-5,16-dioxo-2-((4-(trideuteromethoxy)isoquinolin-1-yl)oxy)-1,2,3,5,6,7,8,9,10,11,13a,14,14a,15,16,16a-hexadecahydrocyclopropa[e]pyrrolo[1,2-a][1,4]diazacyclopentadecine-14a-carboxamide], the EC50 in assay [1] and in assay [2] was less than 5.46 nM in each case.
On to `[2H]C([2H])([2H])Oc1cnc(O[C@@H]2C[C@H]3C(=O)N[C@]4(C(=O)NS(=O)(=O)C5(C)CC5)C[C@H]4/C=C\CC[C@H](C)C[C@@H](C)[C@H](NC(=O)OC(C)(C)C(C)(F)F)C(=O)N3C2)c2ccccc12` [Compound 5108, 3,3-difluoro-2-methylbutan-2-yl((2R,6S,7R,9S,13aS,14aR,16aS,Z)-7,9-dimethyl-14a-(((1-methylcyclopropyl)sulfonyl)carbamoyl)-5,16-dioxo-2-((4-(trideuteromethoxy)isoquinolin-1-yl)oxy)-1,2,3,5,6,7,8,9,10,11,13a,14,14a,15,16,16a-hexadecahydrocyclopropa[e]pyrrolo[1,2-a][1,4]diazacyclopentadecin-6-yl)carbamate], for which the EC50 in assay [1] and in assay [2] was less than 5.46 nM each time.
On to `[2H]C([2H])([2H])Oc1cnc(O[C@@H]2C[C@H]3C(=O)N[C@]4(C(=O)NS(=O)(=O)C5(C)CC5)C[C@H]4/C=C\CC[C@@H](C)C[C@@H](C)[C@H](NC(=O)OC(C)(C)C(C)(F)F)C(=O)N3C2)c2ccccc12` [Compound 5109, 3,3-difluoro-2-methylbutan-2-yl((2R,6S,7R,9R,13aS,14aR,16aS,Z)-7,9-dimethyl-14a-(((1-methylcyclopropyl)sulfonyl)carbamoyl)-5,16-dioxo-2-((4-(trideuteromethoxy)isoquinolin-1-yl)oxy)-1,2,3,5,6,7,8,9,10,11,13a,14,14a,15,16,16a-hexadecahydrocyclopropa[e]pyrrolo[1,2-a][1,4]diazacyclopentadecin-6-yl)carbamate], for which the EC50 in assay [1] and in assay [2] was less than 5.46 nM in each case.
`[2H]C([2H])([2H])Oc1cnc(O[C@@H]2C[C@H]3C(=O)N[C@]4(C(=O)NS(=O)(=O)C5(C)CC5)C[C@H]4CCCC[C@@H](C)C[C@@H](C)[C@H](NC(=O)OC(C)(C)C(F)(F)F)C(=O)N3C2)c2ccccc12` [Compound 5111, 1,1,1-trifluoro-2-methylpropan-2-yl((2R,6S,7R,9R,13aR,14aR,16aS)-7,9-dimethyl-14a-(((1-methylcyclopropyl)sulfonyl)carbamoyl)-5,16-dioxo-2-((4-(trideuteromethoxy)isoquinolin-1-yl)oxy)octadecahydrocyclopropa[e]pyrrolo[1,2-a][1,4]diazacyclopentadecin-6-yl)carbamate]: the EC50 in assay [1] and in assay [2] was less than 5.46 nM in each case.
Consider `COc1cnc(O[C@@H]2C[C@H]3C(=O)N[C@]4(C(=O)NS(=O)(=O)C5(CF)CC5)C[C@H]4CCCC[C@@H](C)C[C@@H](C)[C@H](NC(=O)OC(C)(C)C)C(=O)N3C2)c2ccccc12` [Compound 5115, tert-butyl ((2R,6S,7R,9R,13aR,14aR,16aS)-14a-(((1-(fluoromethyl)cyclopropyl)sulfonyl)carbamoyl)-2-((4-methoxyisoquinolin-1-yl)oxy)-7,9-dimethyl-5,16-dioxooctadecahydrocyclopropa[e]pyrrolo[1,2-a][1,4]diazacyclopentadecin-6-yl)carbamate], for which the EC50 in assay [1] and in assay [2] was less than 5.46 nM each time.
Turning to `COc1cnc(O[C@@H]2C[C@H]3C(=O)N[C@]4(C(=O)NS(=O)(=O)C5(CF)CC5)C[C@H]4CCCC[C@H](C)C[C@@H](C)[C@H](NC(=O)OC(C)(C)C(F)(F)F)C(=O)N3C2)c2ccccc12` [Compound 5116, 1,1,1-trifluoro-2-methylpropan-2-yl((2R,6S,7R,9S,13aR,14aR,16aS)-14a-(((1-(fluoromethyl)cyclopropyl)sulfonyl)carbamoyl)-2-((4-methoxyisoquinolin-1-yl)oxy)-7,9-dimethyl-5,16-dioxooctadecahydrocyclopropa[e]pyrrolo[1,2-a][1,4]diazacyclopentadecin-6-yl)carbamate], the results for the EC50 in assay [1] and in assay [2] were more than 87.4 nM and 4.82 to 103 nM, respectively.
